Source: article PMC11515993, “ZSTK474 targeting PIK3R3 inhibits the Wilms’ tumor through G0 / G1 phase arrest” (PLOS ONE, 2024)

Assays:
[1] = test system: WiT49 subcutaneous nephroblastoma xenograft tumors; assay: Subcutaneous nephroblastoma xenograft tumor growth and tumor immunofluorescence; type: in vivo, BALB/C nude mice
Description: The in vivo experiments were approved by the Institutional Animal Care and Use Committee of Chongqing Medical University (approval number: CHCMU-IACUC20220323001). After being sourced from the Animal Research Center at Chongqing Medical University, BALB/C nude mice (male, 3 weeks old) were housed in stainless steel cages in a ventilated animal room. The room temperature in the housing facility was maintained at 24°C, with a relative humidity of 60% and a 12-h light/dark cycle. Distilled water and sterilized food were available ad libitum. The mice were acclimated for a week. Injection of 2×10^6 WiT49 cells, suspended in 100μL of DMEM, into the left axilla of the mice was used to induce subcutaneous nephroblastoma xenograft tumors. Once the tumor volume reached 90–100 mm^3, the mice were segregated into four groups (n = 6 in each group). Except for one control group that was given PBS, three groups were given daily doses of ZSTK474 (MCE, China) at 25, 50, and 100 mg/kg over a two-week period. Tumor size and body weight of tumor-bearing mice were monitored throughout the study, and no mice died before meeting criteria for euthanasia. The mice were anaesthetised using 3% isoflurane, blood was taken from the eye socket and then executed by decapitation. Standard blood tests and serum analyses were performed to evaluate toxicity, focusing on liver, cardiac, and renal markers for tumor-bearing mice of each group. Tumor weights were recorded, and samples of various organs and tumors were collected for further analysis. Following fixation in 4% paraformaldehyde for more than 24 hours, tumor tissues underwent dehydration and paraffin embedding and were then sectioned into 4-μm slices. The sections were then subjected to thermal antigen retrieval by treating them with sodium citrate buffer and subsequently exposing them to microwave radiation. Following dewaxing, the sections were blocked using 0.5% bovine serum albumin (BSA) and left to incubate with primary antibodies overnight at 4°C. […]

[2] = set-up: method as in PMID 16622124; conditions: chronic oral administration, 800 mg/kg, cited from earlier work
[3] = In vivo safety in WiT49 tumor-bearing mice (body weight, blood and serum tests, organ HE staining); conditions: two weeks; for ALT / AST / BUN / CK / CRE: tumor-bearing nude mice
Description: The in vivo experiments were approved by the Institutional Animal Care and Use Committee of Chongqing Medical University (approval number: CHCMU-IACUC20220323001). After being sourced from the Animal Research Center at Chongqing Medical University, BALB/C nude mice (male, 3 weeks old) were housed in stainless steel cages in a ventilated animal room. The room temperature in the housing facility was maintained at 24°C, with a relative humidity of 60% and a 12-h light/dark cycle. Distilled water and sterilized food were available ad libitum. The mice were acclimated for a week. Injection of 2×10^6 WiT49 cells, suspended in 100μL of DMEM, into the left axilla of the mice was used to induce subcutaneous nephroblastoma xenograft tumors. Once the tumor volume reached 90–100 mm^3, the mice were segregated into four groups (n = 6 in each group). Except for one control group that was given PBS, three groups were given daily doses of ZSTK474 (MCE, China) at 25, 50, and 100 mg/kg over a two-week period. Tumor size and body weight of tumor-bearing mice were monitored throughout the study, and no mice died before meeting criteria for euthanasia. The mice were anaesthetised using 3% isoflurane, blood was taken from the eye socket and then executed by decapitation. Standard blood tests and serum analyses were performed to evaluate toxicity, focusing on liver, cardiac, and renal markers for tumor-bearing mice of each group. Tumor weights were recorded, and samples of various organs and tumors were collected for further analysis.
Fresh tumor samples were fixed in paraformaldehyde for 72 hours. The samples were processed through paraffin embedding and subsequently sectioned at a thickness of 4 μm. The subsequent procedures comprised hydration with xylene and alcohol, staining with hematoxylin and eosin, and dehydration through immersion in graded alcohol and xylene. Subsequently, images were acquired using light microscopy from Nikon, Japan.

WiT49 and WT-CLS1 cells [4] = assay: CCK-8 growth curves; type: cell-based; conditions: 1/2, 1 and 2 times IC50; 0, 24, 48, 72 hours
Description: (§1) The assessment of cell proliferation was conducted utilizing the CCK-8 assay sourced from MCE (HY-K0301, USA). Following detachment utilizing 0.25% trypsin, WiT49 (2.5×10^3) and WT-CLS1 (3×10^3) cells were cultured in 96-well plates. Following adhesion, cells were subjected to varying doses of ZSTK474 (0–32 μM) for a duration of 48 hours. Following a 2-hour incubation with culture medium (90 μL) and CCK-8 reagent (10 μL) at 37°C, the measurement of the absorbance at 450 nm was conducted to measure the IC50 value of ZSTK474. Following this, the cells were treated with ZSTK474 at concentrations equivalent to 1/2, 1, and 2 times the IC50 value. Growth curves were subsequently plotted at 0, 24, 48, and 72 hours post-incubation.

WiT49 cells [5] = assay: CCK-8 cell proliferation assay (IC50); type: cell-based; conditions: 48-hour treatment
Description: as §1

WT-CLS1 cells [6] = assay: CCK-8 cell proliferation assay (IC50); type: cell-based; conditions: 48-hour treatment
Description: as §1

WiT49 and WT-CLS1 cells [7] = assay: Wound healing (scratch) cell migration assay; type: cell-based; conditions: 0, 24, 48 hours, serum-free medium
Description: WT cells (2×10^5 cells per well) were cultured in 6-well plates in a 5% CO2 environment at 37°C until confluence was achieved. A consistent wound was generated on the cellular surface, and any detached cells were eliminated using PBS. After this, WiT49 and WT-CLS1 cells were subjected to varying concentrations of ZSTK474 in a serum-free DEME medium. After a 48-hour incubation, cell migration was assessed at 0, 24, and 48 hours under a Nikon microscope. The scratch width measurement was performed using ImageJ.

WiT49 cells [8] = assay: Annexin V apoptosis flow cytometry; type: cell-based; conditions: WiT49, 48 hours, IC50 dose
Description: (§2) The assessment of apoptosis was carried out using the Annexin V Apoptosis Kit (BDPharmingen, 5565547, USA). WiT49 and WT-CLS1 cells were cultured in 6-well plates for 12 hours. Subsequently, they were exposed to different concentrations of ZSTK474 for 48 hours and then analyzed using flow cytometry. FlowJo 10.8.1 software was utilized for data analysis.

WT-CLS1 cells [9] = assay: Annexin V apoptosis flow cytometry; type: cell-based; conditions: WT-CLS1, 48 hours, IC50 dose
Description: as §2

WiT49 and WT-CLS1 cells [10] = assay: Transwell cell invasiveness assay; type: cell-based; conditions: 24 and 48 hours
Description: The assessment of cell invasiveness was performed through a Transwell assay on plates coated with matrix gel. When seeded on plates, WiT49 and WT-CLS1 cells were positioned in the […] with a 10% FBS medium, while different concentrations of ZSTK474 in a serum-free medium were placed in the upper chamber. Cells were fixed and stained with crystal violet after 24 and 48 hours of treatment. Cell invasiveness was quantified using ImageJ software while observing under a light microscope.

WiT49 and WT-CLS1 cells [11] = assay: TUNEL assay; type: cell-based; conditions: 48 hours, low, medium and high dose
Description: In WT cells, apoptosis-induced DNA damage was identified through TUNEL staining in the low, medium, and high-dose intervention groups. After a 12-hour incubation in 24-well plates, cells were treated with varying concentrations of ZSTK474 for 48 hours. The cells were then subjected to TUNEL staining according to the manufacturer’s instructions. The cell nuclei were counterstained with DAPI and then mounted utilizing an anti-fade mounting medium. The Nikon C2 microscope was employed for image acquisition.

WT-CLS1 cells [12] = assay: RT-PCR of NRG4, CDKN1A, FGF18, PIK3R3, PDGFRB; type: cell-based; conditions: among the five genes
Description: Total RNA was extracted from WiT49 and WT-CLS1 cells utilizing TRIzol reagent (Invitrogen, CA, USA) and subsequently subjected to RT-PCR following the protocols of RTMasterMix (MCE, NJ, USA). Utilizing the SYBR Green RT-PCR Master Mix from MCE in NJ, USA, mRNA quantification was conducted on the Bio-Rad CFX ConnectTM Real-Time System. The relative expressions of NRG4, CDKN1A, FGF18, PIK3R3, and PDGFRB were measured using GAPDH as the internal reference gene.

WiT49 and WT-CLS1 cells [13] = assay: Cell cycle assay by flow cytometry; type: cell-based; conditions: different concentrations, 48 hours
Description: The assessment of cell cycle progression after exposure to different concentrations of ZSTK474 was conducted using the BD Cell Cycle Assay Kit from Dojindo, Japan. In accordance with standardized procedures, WT-CLS1 and WiT49 cells were cultured for 48 hours, then fixed in 75% ethanol for an additional 48 hours. Following this, the cells were centrifuged, resuspended twice in PBS, and stained with propidium iodide and RNase at 37°C for 30 minutes. Lastly, cell cycle distribution was assessed through flow cytometry.

WiT49 and WT-CLS1 cells [14] = assay: Western blot of treated WT cells; type: cell-based
Description: The protein lysis solution containing 1% PMSF was used to lyse both WiT49 and WT-CLS1 cells treated with ZSTK474. After centrifugation at 12000g for 20 minutes, the protein content was quantified using a BCA assay kit (Thermo, China). Subsequently, 10 μg of protein underwent electrophoresis on a 6%-12.5% SDS-PAGE gel (EpiZyme, China) and was then transferred to a PVDF membrane (Millipore, ISEQ00010, USA) via semi-dry electrotransfer. After three TBST washes, the PVDF membranes were exposed to primary antibodies (Akt, MMP2, MMP9, PI3K, p-PI3K, p-Akt, PCNA, VEGF, P21, CyclinD, CDK4, GAPDH from ZENBIO, Chengdu, China; PIK3R3 from Proteintech, Wuhan, China) overnight at a 1:1000 dilution and 4°C. After being washed three times in TBST, the PVDF membrane was incubated with secondary antibodies (1:20000, ZENBIO, China) for one hour at room temperature. The Bio-RAD analyzer and Image Lab software were utilized for imaging and analysis.

Structure (SMILES): FC(F)c1nc2ccccc2n1-c1nc(N2CCOCC2)nc(N2CCOCC2)n1 [ZSTK474]
- levels of PCNA, MMP2, MMP9 and VEGF in tumor tissues (immunofluorescence) ([1]; 25, 50 and 100 mg/kg): markedly reduced
- subcutaneous tumor volume vs control ([1]; day 5, high-dose treatment group): initial reductions in tumor volume
- subcutaneous tumor volume vs control ([1]; day 11, treatment group): notable reduction in tumor volumes
- weight loss ([2]; by day 28): 14%
- dermal toxicity ([2]; more than 28 days): did not result in any dermal toxicity
- toxic damage to vital organs ([2]; more than 28 days): no evidence of toxic damage to vital organs
- ALT ([3]; 25 mg/kg daily): 69.7(44.7–96.9)
- AST ([3]; 25 mg/kg daily): 117.5 (95.8–153.7)
- BUN ([3]; 25 mg/kg daily): 8.3(5.6–10.6)
- CK ([3]; 25 mg/kg daily): 1084.2 (1029.0–1145.0)
- CRE ([3]; 25 mg/kg daily): 13.0(11.0–15.0)
- ALT ([3]; 50 mg/kg daily): 62.6(48.1–88.2)
- AST ([3]; 50 mg/kg daily): 126.1 (99.4–174.1)
- BUN ([3]; 50 mg/kg daily): 7.7(5.1–10.8)
- CK ([3]; 50 mg/kg daily): 1009.5 (793.0–1141.0)
- CRE ([3]; 50 mg/kg daily): 12.7(11.0–14.0)
- ALT ([3]; 100 mg/kg daily): 60.6(50.4–76.5)
- AST ([3]; 100 mg/kg daily): 130.4 (97.7–173.1)
- BUN ([3]; 100 mg/kg daily): 7.3(5.1–10.1)
- CK ([3]; 100 mg/kg daily): 952.5 (637.0–1135.0)
- CRE ([3]; 100 mg/kg daily): 12.5(10.0–15.0)
- hematological indices and organ pathology examination vs control ([3]; 25, 50, 100 mg/kg daily): no notable variances
- post-administration body weight changes vs PBS control ([3]; 25, 50, 100 mg/kg daily): no significant differences
- cell growth (proliferation curve) (WiT49 and WT-CLS1 cells [4]): dose-dependent suppression of cell growth
- IC50 (WiT49 cells [5]): 2000 nM
- IC50 (WT-CLS1 cells [6]): 2510 nM
- cell migration (scratch assay) (WiT49 and WT-CLS1 cells [7]): reduced migration rates
- rise in apoptotic cells compared to the controls (WiT49 cells [8]): 20%
- rise in apoptotic cells compared to the controls (WT-CLS1 cells [9]): below 10%
- invasion capacity (Transwell) (WiT49 and WT-CLS1 cells [10]): decrease in invasion capacity
- apoptosis-induced DNA damage (TUNEL) (WiT49 and WT-CLS1 cells [11]): late apoptotic DNA damage response
- PIK3R3 RNA level (RT-PCR) (WT-CLS1 cells [12]): most pronounced downregulation
- percentage of cells in the G0/G1 phase (WiT49 and WT-CLS1 cells [13]): significant rise in the percentage of cells in the G0/G1 phase
- expression levels of PCNA, MMP2, MMP9 and VEGF (Western blot) (WiT49 and WT-CLS1 cells [14]; WT cells): lowered expression levels
- p-PI3K/PI3K and p-Akt/Akt (Western blot) (WiT49 and WT-CLS1 cells [14]; WT cells): reduced levels
- P21 expression (Western blot) (WiT49 and WT-CLS1 cells [14]; WiT49 and WT-CLS1): elevation in P21 expression
- cyclin D and CDK4 levels (Western blot) (WiT49 and WT-CLS1 cells [14]; WiT49 and WT-CLS1): reduction in cyclin D and CDK4 levels
